Four compounds from patent publication US9273095B2, “Antibiotic peptide and preparation method therefor and application therefor” (priority 2011, dated 2016) can be followed below.

≈ marks a conversion by molar mass, not a printed value. Where two headings read alike, the source gives them in different places. Non-standard residues stand in square brackets, D forms with d. Residues, ends and D or L forms follow the SMILES beside them.

For one data set, the system named is Typhoid bacillus H901. In words: microbe, parasite or virus in culture. The format is cell-based. A digest of the protocol:
(§1)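 Testing covers laboratory standard strains and clinical isolates, resistant bacteria among them, with ATCC quality-control strains. Each is multipoint-inoculated at 10^4CFU/point onto MH agar holding two-fold drug dilutions (0.03–128 μg/ml) and incubated 18 hours at 35° C.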

The test system of the next data set is Shigella. In words: microbe, parasite or virus in culture. Format: cell-based. A digest of the protocol:
as §1

The test system of another data set is Staphylococcus aureus. In words: microbe, parasite or virus in culture. The format is cell-based. A digest of the protocol:
(§2)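 Two-fold agar dilution method on MH agar (0.03–128 μg/ml final), 10^4CFU/point, 18 hours at 35° C.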

For data set [1], the system named is Staphylococcus epidermidis. The experiment in a line: microbe, parasite or virus in culture. Format: cell-based. A digest of the protocol: as §2
Another data set concerns Shigella sonnei. In words: microbe, parasite or virus in culture. Particulars: Shigella sonnei strains 51592. The format is cell-based. A digest of the protocol:
as §1

Another data set concerns Enterococcus faecium. In words: microbe, parasite or virus in culture. The format is cell-based. As for the experimental part:
The experimental strains are 37 standard strains preserved in lab and clinical isolated bacteria, including drug-resistant bacteria and quality-control bacteria selecting Staphylococcus aureus ATCC29213, Enterococcus faecalis ATCC29212, Escherichia coli ATCC25922, Pseudomonas aeruginosa ATCC27853 and klebsiella pneumoniae ATCC700603.
(1) Sensitivity test is conducted with two-fold agar dilution method and Denlay multipoint inoculator. Test bacteria are cultured with nutrient broth and brain heart infusion.
(2) The drug is double diluted into different concentration with MH broth after dissolved and then placed in the plate respectively.
(4) After solidification of the culture medium in the plate, test bacteria (10^4CFU/point) are inoculated by multipoint inoculator and cultured for 18 hours at constant 35° C. Then observe the results.

The nature of data set [2]: Circular dichroism (CD) spectroscopy, helical structure. The note with it: for 50% TFE % helix / Benign buffer % helix: relative to ellipticity (100%) of reference peptide in 50% TFE; for Benign buffer [θ]222: 100 mM KCl, 50 mM PO4, pH 7.0. Format: physicochemical. As for the experimental part: The mean residue molar ellipticities of peptides are determined by circular dichroism (CD) spectroscopy, using a Jasco J-720 spectropolarimeter (Jasco, Easton, Md.), at 25° C. under benign conditions (50 mM KH2PO4/K2HPO4/100 mM KCl, pH7), as well as in the presence of an α-helix inducing solvent, 2,2,2-trifluoroethanol (TFE) (50 mM KH2PO4/K2HPO4/100 mM KCL, pH 7 buffer/50% TFE). A 10-fold dilution of a 500 μM stock solution of the peptide is loaded into a 0.02 cm fused silica cell and its mean residue molar ellipticity scanned from 190 to 250 nm. The values of mean residue molar ellipticities of the peptide at a wavelength of 222 nm are used to estimate the relative amount of α-helicity of the peptides.
To determine the secondary structure of peptides in different environments, circular dichroism (CD) spectra of the peptide analogs are measured under physiologically related pH and ionic strength (100 mM KCl, 50 mM aq. PO4, pH 7 referred to as benign conditions) and also in 50% TFE to mimic the hydrophobic environment of the membrane. CD spectra of the peptide analogs are measured under benign conditions (100 mM KCl, 50 mM KH2PO4/K2HPO4, pH 7, referred to as KP buffer) and also in 50% trifluoroethanol (TFE) to mimic the hydrophobic environment of the membrane. […] However, in the presence of 50% TFE, all three L-peptides are fully folded α-helical structures with similar molar ellipticities and helicity.
FIG. 2 illustrates graphical results of Circular dichroism (CD) spectra of peptides at pH 7.4 and 25° C., in 50 mM aq. PO4 containing 100 mM KCl, wherein KP buffer (50 mM KH2PO4, K2HPO4, 100 mM KCl, pH 7.4) mimics hydrophilic environment and KP buffer-TFE (1:1 [vol/vol]) mimics hydrophobic environment of cell membrane. The figure above represents the CD spectra of peptides in benign buffer without TFE, whilst the figure below represents CD spectra obtained in the presence of 50% TFE.
(CD spectra are sensitive to the conformation of chiral molecules.)

The test system of another data set is candida krusei. The experiment in a line: microbe, parasite or virus in culture. Format: cell-based. An excerpt: • (1) Test strains: monilia albicans (candida albicans), candida glabrata, candida krusei, candida tropicalis, aspergillus fumigatus and flavous. (2) Quality control strains: candida krusei JLC30366 (ATCC6258). Antimicrobial peptides PL-13 (SEQ ID NO: 1) under test are supplied by Jiangsu ProteLight Pharmaceutical & Biotechnology Co., LTD. […] (1) The bacterial strains which preserved on PDA slant are respectively inoculated onto PDA plate and slant medium. Activation of bacterial strains is conducted at a humidity level of 60% and 25° C. (for aspergillus) or 37° C. (for candida). (2) 0.9% stroke-physiological saline solution comprising 0.5% Tween-80 is used to prepare bacterial suspension for experiment. Hemocytometer is utilized to adjust concentration of the bacterial suspension to 1-3×10^6 CFU/ml (0.5 McFarland units) to make stock solution in reserve at -20° C. During the sensitivity test, the RPMI-1640 liquid medium is diluted 1000 times to 1-3×10^3 CFU/ml. (3) The RPMI-1640 liquid is utilized as diluent to 10-fold dilute stock solution of peptides. […] The eleventh orifice is used as living control orifice, while the twelfth one as blank control. (4) The RPMI-1640 liquid is utilized as diluent to 10-fold dilute stock solution of FCZ and ICZ. […] Ditto for other operations.

Another data set relates to Pseudomonas aeruginosa. In words: microbe, parasite or virus in culture. Format: cell-based. A digest of the protocol:
as §2

A further data set relates to Shigella flexneri. The experiment in a line: microbe, parasite or virus in culture. The format is cell-based. A digest of the protocol: as §1
The next data set has as its system Escherichia coli. The experiment in a line: microbe, parasite or virus in culture. Format: cell-based. A digest of the protocol:
as §2

Another data set has as its system klebsiella pneumoniae. In words: microbe, parasite or virus in culture. The note with it: Klebsiella pneumoniae. Format: cell-based. A digest of the protocol:
as §2

[3] abbreviates: 08-52(MRSA) Methicillin-resistant staphylococcus aureus.
Where [4] appears, read: 06-12 (VREF) Vancomycin-resistant enterococci.
Where [5] appears, read: mean residue molar ellipticity at 222 nm, 25° C.
[6] abbreviates: 08-49(MSSA) Meticillin susceptible staphylococcus aureus.

For the compound `CC(=O)N[C@H](Cc1ccccc1)C(=O)N[C@H](CCCCN)C(=O)N[C@H](CCCCN)C(=O)N[C@H](CC(C)C)C(=O)N[C@H](CCCCN)C(=O)N[C@H](CCCCN)C(=O)N[C@H](CC(C)C)C(=O)N[C@H](Cc1ccccc1)C(=O)N[C@H](CO)C(=O)N[C@H](CCCCN)C(=O)N[C@H](CC(C)C)C(=O)N[C@H](Cc1c[nH]c2ccccc12)C(=O)N[C@H](CC(N)=O)C(=O)N[C@H](Cc1c[nH]c2ccccc12)C(=O)N[C@H](CCCCN)C(N)=O` [PL-18] (Ac-[dF][dK][dK][dL][dK][dK][dL][dF][dS][dK][dL][dW][dN][dW][dK]-NH2), the MIC against Typhoid bacillus H901 was 0.3 µM (≈ 0.611 µg/mL); with Shigella, 1.3 µM (≈ 2.65 µg/mL); against Staphylococcus aureus, 0.7 µM (≈ 1.42 µg/mL); in the data set with Staphylococcus aureus (setting [3]), 2.7 µM (≈ 5.5 µg/mL); in data set [1], 0.7 µM (≈ 1.42 µg/mL); with Shigella sonnei, 0.04 µM (≈ 0.0814 µg/mL). The MIC in the data set on Enterococcus faecium (setting [4]) and in the data set on Enterococcus faecium (Enterococcus faecium 06-1) was 5.3 µM (≈ 10.8 µg/mL) throughout. In addition, in data set [2], the “50% TFE % helix” value is reported as 80.5%. Further, in data set [2], the “Benign buffer % helix” value worked out at 8.2%. Also, in data set [2] (setting [5]), the “Benign buffer [θ]222” value came out at 2300 deg · cm^2 · dmol^−1. Besides, the Minimal inhibitory concentration in the data set on candida krusei came out at 4 µg/mL (≈ 1.97 µM).

Turning to `C[C@H]1COc2c(N3CCN(C)CC3)c(F)cc3c(=O)c(C(=O)O)cn1c23` [Levofloxacin, levofloxacin, reference compound], the MIC in the data set with Pseudomonas aeruginosa (Pseudomonas aeruginosa, Pseudomonas aeruginosa TCC27853) is 1.2 µM (≈ 0.434 µg/mL); against Pseudomonas aeruginosa (Pseudomonas aeruginosa, strain 17 (listed under Pseudomonas aeruginosa)), 0.7 µM (≈ 0.253 µg/mL); against Typhoid bacillus H901, < 0.02 µM; against Shigella it was < 0.02 µM; in the data set with Staphylococcus aureus (setting [6]), 0.3 µM (≈ 0.108 µg/mL); against Staphylococcus aureus (setting [3]), 76.9 µM (≈ 27.8 µg/mL). Also, the MIC against Staphylococcus aureus (Staphylococcus aureus ATCC25923) was 0.3 µM (≈ 0.108 µg/mL); in the data set on Staphylococcus aureus (Staphylococcus aureus ATCC29213), 0.6 µM (≈ 0.217 µg/mL); against Staphylococcus aureus (strain 15 (listed under Staphylococcus aureus)), 0.3 µM (≈ 0.108 µg/mL); in the data set on Shigella flexneri, 0.1 µM (≈ 0.0361 µg/mL); in data set [1] (08-17 (MSSE) Meticillin susceptible staphylococcus epidermidis), 1.2 µM (≈ 0.434 µg/mL); in data set [1] (08-18 (MRSE) Methicillin-resistant staphylococcus epidermidis), 55.5 µM (≈ 20.1 µg/mL). In addition, the MIC in data set [1] (ATCC 12228 / MRSE, (MRSE) Methicillin-resistant Staphylococcus epidermidis ATCC12228) was 0.3 µM (≈ 0.108 µg/mL); against Escherichia coli (Escherichia coli, 08-5 (ESBLs) Extended Spectyumβ-lactamase), 76.9 µM (≈ 27.8 µg/mL); against Escherichia coli (Escherichia coli, 272(TEM-88)), < 0.7 µM; in the data set on Escherichia coli (Escherichia coli, 274 (TEM-15)), 0.2 µM (≈ 0.0723 µg/mL); against Escherichia coli (Escherichia coli, 276 (TEM-52)), < 0.2 µM; in the data set on Escherichia coli (Escherichia coli, ATCC25922, Escherichia coli ATCC 25922) it was 0.14 µM (≈ 0.0506 µg/mL). Moreover, the MIC was < 0.7 µM against Escherichia coli (Escherichia coli, strain 26 (listed under Escherichia coli)); 76.9 µM (≈ 27.8 µg/mL) against klebsiella pneumoniae (08-2 (ESBLs) (listed under klebsiella pneumoniae)); 1.2 µM (≈ 0.434 µg/mL) in the data set on klebsiella pneumoniae (ATCC700603, klebsiella pneumoniae ATCC700603); < 16 µM with klebsiella pneumoniae (strain 7 (listed under klebsiella pneumoniae)); 0.1 µM (≈ 0.0361 µg/mL) against Shigella sonnei; 2.40 µM (≈ 0.867 µg/mL) in the data set with Enterococcus faecium (Enterococcus faecium 06-1). Also, in the data set on Enterococcus faecium (Enterococcus faecium, 06-12 (VREF) Vancomycin-resistant enterococci), the MIC was 2.4 µM (≈ 0.867 µg/mL).

For `CC(=O)N[C@H](Cc1ccccc1)C(=O)N[C@H](CCCCN)C(=O)N[C@H](CCCCN)C(=O)N[C@H](Cc1ccccc1)C(=O)N[C@H](CCCCN)C(=O)N[C@H](CCCCN)C(=O)N[C@H](CC(C)C)C(=O)N[C@H](CC(C)C)C(=O)N[C@H](CO)C(=O)N[C@H](CCCCN)C(=O)N[C@H](CC(C)C)C(=O)N[C@H](Cc1c[nH]c2ccccc12)C(=O)N[C@H](CC(N)=O)C(=O)N[C@H](Cc1c[nH]c2ccccc12)C(=O)N[C@H](CCCCN)C(N)=O` [PL-43] (Ac-[dF][dK][dK][dF][dK][dK][dL][dL][dS][dK][dL][dW][dN][dW][dK]-NH2; N-terminus and C-terminus assumed), in data set [2], the “50% TFE % helix” value is listed as 96.3% and the “Benign buffer % helix” value stood at 14.0%.

Regarding Ac-FKKLKKLFSKLWNWK-NH2 [PL-13], the MIC against Pseudomonas aeruginosa is recorded as 1.3 µM; in the data set with Typhoid bacillus H901, 1.3 µM; with Shigella, 0.7 µM; in the data set with Staphylococcus aureus, 0.7 µM; against Staphylococcus aureus (setting [6]), 2.7 µM; with Staphylococcus aureus (setting [3]), 2.7 µM. Moreover, the MIC in the data set on Shigella flexneri came out at 0.7 µM; against Escherichia coli (08-5 (ESBLs) Extended Spectyumβ-lactamase), 0.7 µM; in the data set with Shigella sonnei, 0.7 µM; in the data set with Enterococcus faecium (setting [4]) it was 5.3 µM; against Enterococcus faecium (Enterococcus faecium 06-1) it was 5.3 µM. Further, the “50% TFE % helix” value in data set [2] came out at 80.7%. Besides, in data set [2], the “Benign buffer % helix” value turned out to be 8.3%. For the same compound, the “Benign buffer [θ]222” value in data set [2] (setting [5]) is −2350 deg · cm^2 · dmol^−1. For the same compound, the “50% TFE [θ]222” value in [2] (mean residue molar ellipticity at 222 nm, 25° C., buffer containing 50% TFE) is listed as −22750 deg · cm^2 · dmol^−1.
